Data: US9169315B2, “Heparin cofactor II fragments with anti-inflammatory and anti-coagulant activity” (XIMMUNE AB, priority 2009, dated 2015)
No end group written: not given here.

What was measured:
[1] = test system: E. coli, P. aeruginosa and S. aureus; experiment: Viable count assay; type: cell-based; details: for Time within which bacterial killing occurred: 30 μM, pH 7.4, 20% plasma; for Time within which bacterial killing occurred / Antibacterial activity in viable count assays: 0.15 M NaCl, 10 mM Tris; for Antibacterial activity in viable count assays: with or without 20% human citrate plasma
Description: E. coli ATCC 25922 bacteria were grown to mid-logarithmic phase in Todd-Hewitt (TH) medium. Bacteria were washed and diluted in 10 mM Tris, pH 7.4 containing 5 mM glucose. E. coli ATCC 25922 ([…]; 2×10^6 cfu/ml) were incubated, at 37° C. for 2 h with peptides at the indicated concentrations. Other experiments with the TFPI-peptides and LL-37 were performed in 10 mM Tris, pH 7.4, containing also 0.15 M NaCl, with normal or heat inactivated 20% citrate-plasma (PP). Serial dilutions of the incubation mixture were plated on TH agar, followed by incubation at 37° C. overnight and cfu determination.
(§1) E. coli ATCC 25922, P. aeruginosa 15159, or S. aureus ATCC 29213 bacteria were grown to mid-logarithmic phase in Todd-Hewitt (TH) medium (Becton and Dickinson, Maryland, USA). The microorganisms were then washed and diluted in 10 mM Tris, pH 7.4 containing 5 mM glucose. Following this, bacteria (50 μl; 2×10^6 cfu/ml) were incubated, at 37° C. for 2 hours, with KYE28, KYE21 or LL-37 (at 0.03, 0.06, 0.3, 0.6, 3, 6, 30, 60 μM) in 10 mM Tris, 0.15 M NaCl, with or without 20% human citrate-plasma. To quantify the bactericidal activity, serial dilutions of the incubation mixtures were plated on TH agar, followed by incubation at 37° C. overnight and the number of colony-forming units was determined. 100% survival was defined as total survival of bacteria in the same buffer and under the same condition in the absence of peptide. Significance was determined using the statistical software SigmaStat (SPSS Inc., Chicago, Ill., USA).
as §1, with “NLF20” for “KYE28, KYE21”, “citrate-plasma. In the experiments using 50% whole blood, S. aureus ATCC 29213 and P. aeruginosa ATCC 27853 bacteria (50 μl; 2×10^8 cfu/ml) were incubated at 37° C. for 1 hour in the presence of peptide at 60 (for P. aeruginosa) and 120 μM (P. aeruginosa and S. aureus).” for “citrate-plasma.”

RAW 264.7 macrophages = experiment: NO production of stimulated macrophages (Griess reaction); type: cell-based, mouse; details: for NO-release of LPS-stimulated macrophages: E. coli or P. aeruginosa LPS, 10 ng/ml; for NO production: stimulated with E. coli LPS, LTA, PGN, zymosan A
Description: (§2) 3.5×10^5 cells were seeded in 96-well tissue culture plates (Nunc, 167008) in phenol red-free DMEM (Gibco) supplemented with 10% FBS and antibiotics. Following 6 hours of incubation to permit adherence, cells were stimulated with 10 ng/mL E. coli (0111:84) LPS (Sigma), lipoteichoic acid, peptioglycan, or zymosan, with and without peptides at the indicated doses (see figure legends and figures). The levels of NO in culture supernatants were determined after 24 hours from stimulation using the Griess reaction. Briefly, nitrite, a stable product of NO degradation, was measured by mixing 50 μl of culture supernatants with the same volume of Griess reagent (Sigma, G4410) and reading absorbance at 550 nm after 15 min. Phenol-red free DMEM with FBS and antibiotics were used as a blank. A standard curve was prepared using 0-80 μM sodium nitrite solutions in ddH20.
as §2, with “coli” for “coli (0111:84)”, “(0111:B4)” for “(Sigma), lipoteichoic acid, peptioglycan, or zymosan,”, “peptide of various doses.” for “peptides at the indicated doses (see figure legends and figures).”, “reaction (Pollock, Forstermann et al. 1991).” for “reaction.”

[2] = test system: intrinsic pathway of coagulation; experiment: Activated partial thromboplastin time (aPTT); details: normal human plasma
Description: All clotting times were measured using an Amelung coagulometer. Activated partial thromboplastin time (aPTT) was measured by incubating the peptides diluted in sterile water at the indicated concentrations, with 100 μL citrated human plasma for 1 minute followed by the addition of 100 μL aPTT reagent (aPTT Automate, Diagnostica Stago) for 60 seconds at 37° C. Clotting was initiated by the addition of 100 μL of a 25-mM CaCl2 solution. In the prothombrin time assay (PT), clotting was initiated by the addition of 100 μL Thrombomax with calcium (PT reagent; Sigma-Aldrich). For measuring the thrombin clotting time (TCT), clotting was initiated by the addition of 100 μL Accuclot thrombin time reagent (TCT reagent; Sigma-Aldrich).
All clotting times were analyzed using a coagulometer (Amelung, Lemgo, Germany). The prothrombin time (PT) and the Thrombin clotting time (TCT) were measured as followed: Hundred microliter of fresh human citrate plasma together with indicated concentrations of NLF20 were pre-warmed for 60 sec at 37° C. before clot formation was initiated by adding 100 μl a clotting reagent. (PT-thromboplastin reagent (Trinity Biotech), TCT: Thrombin reagent (Technoclone)). To record the activated partial thromboplastin time (aPTT), 100 μl of a kaolin-containing solution (Technoclone) was add to the plasma-peptide mix and incubated for 200 sec before clot formation was initiated by adding 100 μl of 30 mM fresh CaCl2 solution.

Sequence | Time within which bacterial killing occurred [1] [min] | Antibacterial activity in viable count assays [1] | NO-release of LPS-stimulated macrophages (RAW 264.7 macrophages) | NO production (RAW 264.7 macrophages) | Activated partial thromboplastin time (aPTT) [2] | Antibacterial activity in presence of human citrated plasma (viable count) ([1]; 20% human citrate plasma vs buffer) | Concentration eliminating LPS-induced NO-responses (RAW 264.7 macrophages; 10 ng/ml E. coli or P. aeruginosa LPS) [µM]
KYEITTIHNLFRKLTHRLFRRNFGYTLR [KYE28] | 5 to 20 | significant antibacterial activity | significantly inhibited NO-release | blocks NO production | impair the intrinsic pathway of coagulation |  | 
KYEITTIHNLFRKLTHRLFRR [KYE21] |  | significant antibacterial activity | significantly inhibited NO-release | blocks NO production | only minor blocking of the aPTT |  | 
NLFRKLTHRLFRRNFGYTLR [NLF20] | 5 to 20 | displays significant antibacterial activity |  | blocks NO production | impaired the intrinsic pathway of coagulation | retained, and for E. coli and S. aureus, even enhanced | 20 to 40
